The source of these data is patent US20160209435A1, “Acetaminophen as a Marker of Hepatic Disorders” (THE ARIZONA BOARD OF REGENTS, on behalf of THE UNIVERSITY …, priority 2008, published 2016).

Read-outs that look alike come from different tables or passages of the source.

Data set [1] is described as follows: APAP-GLUC concentration in urine after APAP administration (HPLC). It is filed as in vivo, human. The following applies: normal volunteers, steatosis, steatohepatitis. The method, then:
(§1) A study was conducted in pediatric patients whose disease status had been biopsy verified. Twenty-four pediatric patients (12-18 yrs) were desirable for the preliminary study due to the presumed lack of confounding factors (e.g., alcoholic consumption, illicit drug use) and the increasing prevalence of childhood obesity. Conversely, pediatric patients are limited in the amount of real liver damage that can take place simply due to age, where pediatric patients are incapable of developing ballooning degeneration and are limited to fat deposition, inflammation, and fibrosis.
High Performance Liquid Chromatography Analysis. APAP and its metabolites in plasma, and urine samples were quantified by high performance liquid chromatography analysis based on previously described methods (Howie et al., 1977a; Chen et al., 2000; Slitt et al., 2003d). […] The elution of metabolites was monitored at a wavelength of 254 nm. Retention times of APAP and its metabolites were determined by comparison with that of authentic standards. […] Samples were analyzed using a Beckman System Gold HPLC system (Beckman Coulter, Inc., Fullerton, Calif.) equipped with a 128-nm solvent module and a 166-nm detector. Quantitation was based on integrated peak areas. […]

Data set [2] can be described thus: APAP-GLUC concentration in plasma of pediatric patients after APAP administration (HPLC). It is filed as in vivo, human. The following applies: for concentration at 1 h / concentration at 2 h / concentration at 4 h / concentration at 3 h: human, plasma; for concentration at 1 h: 1 h after APAP; for concentration at 2 h: 2 h after APAP; for concentration at 4 h: 4 h after APAP; for concentration at 3 h: 3 h after APAP. The procedure:
as §1
High Performance Liquid Chromatography Analysis. APAP and its metabolites in plasma, and urine samples were quantified by high performance liquid chromatography analysis based on previously described methods (Howie et al., 1977a; Chen et al., 2000; Slitt et al., 2003d). APAP and its metabolites were resolved using a Zorbmax™ SB-C18 reverse-phase 4.6-mm×25-cm column with a Phenomenex™ Security Guard Column Guard and eluted using a mobile phase composed of 12.5% HPLC-grade methanol, 1% acetic acid, and 86.5% water, run isocratically at a flow rate of 1.2 mL/minute. The elution of metabolites was monitored at a wavelength of 254 nm. Retention times of APAP and its metabolites were determined by comparison with that of authentic standards. […] Samples were analyzed using a Beckman System Gold HPLC system (Beckman Coulter, Inc., Fullerton, Calif.) equipped with a 128-nm solvent module and a 166-nm detector. Quantitation was based on integrated peak areas. The concentrations of APAP and its metabolites were calculated using an APAP standard curve since the molar extinction coefficients of APAP and its conjugated metabolites are approximately the same (Howie et al., 1977b). To precipitate proteins in plasma, and urine, samples were diluted 1:2, 1:2, and 1:3, respectively, with ice-cold methanol and centrifuged at 4,000×g for 30 minutes at 4° C. The resulting supernatants were collected and diluted in mobile phase 1:3 (urine) or 1:2 (plasma) prior to HPLC analysis.
Liver fibrosis was histologically characterized as mild (minimal scarring around blood vessels), moderate (scarring extending out from the liver blood vessels), or severe (scarring forming bridges between blood vessels).
Liver inflammation was histologically characterized as mild (less than 2 foci of inflammation), moderate (2-4 foci of inflammation), or severe (more than 4 foci of inflammation).

The conditions of data set [3]: MCD rats, APAP 1 mmol/kg; cited from earlier work.
For data set [4] the following is noted: cited from earlier work.
[5] abbreviates: NASH, read-out: Mean plasma concentration.
Where [6] appears, read: NASH, read-out: Median plasma concentration.
Setting [7] is: Normal, read-out: Mean plasma concentration.
Setting [8] is: Normal, read-out: Median plasma concentration.
Setting [9] is: Steatosis, read-out: Mean plasma concentration.
Setting [10] is: Steatosis, read-out: Median plasma concentration.

For the compound `CC(=O)Nc1ccc(O[C@@H]2O[C@H](C(=O)O)[C@@H](O)[C@H](O)[C@H]2O)cc1` [APAP-GLUC, acetaminophen (APAP)-glucuronide], in data set [1], the “Urine levels, NASH versus other groups” value was “not significantly different between patients with NASH and other groups until four hours”. Also, in data set [2] (all time points measured), the “Plasma concentration, steatohepatitis versus simple steatosis” value is “significantly higher”. In addition, the concentration at 1 h was 60.7 µM in data set [2] (setting [5]); 75.9 µM in data set [2] (setting [6]); 29.9 µM in data set [2] (setting [7]); 29 µM in data set [2] (setting [8]); 30.5 µM in data set [2] (setting [9]); 32.6 µM in data set [2] (setting [10]). For the same compound, the concentration at 2 h in data set [2] (setting [5]) worked out at 72.7 µM; in data set [2] (setting [6]), 66.4 µM; in data set [2] (setting [7]), 54.3 µM; in data set [2] (setting [8]), 48.9 µM; in data set [2] (setting [9]), 44.3 µM; in data set [2] (setting [10]) it was 41.1 µM. Moreover, the concentration at 4 h came out at 68.3 µM in data set [2] (setting [5]), 62.6 µM in data set [2] (setting [6]), 35.5 µM in data set [2] (setting [9]) and 35.3 µM in data set [2] (setting [10]). The values for the concentration at 3 h in data set [2] (setting [7]) and in data set [2] (setting [8]) were 46.7 µM and 39.2 µM, respectively. In data set [2] (pediatric patients), the “Plasma levels, hepatic fibrosis versus no hepatic fibrosis” value is reported as “Higher”. In addition, the “Plasma levels, hepatic inflammation versus no hepatic inflammation” value in data set [2] (pediatric patients) is reported as “Higher”. Further, the “route of excretion relative to control” value in data set [3] is “shift from biliary to plasma excretion”.
Regarding `CC(=O)Nc1ccc(O)cc1` [Acetaminophen], the plasma half-life in data set [4] (first-order elimination) was 2.0 to 2.4 h. In data set [4] (in vivo), the “fraction of administered dose conjugated with glucuronic acid” value is listed as “At least one-half” and the “fraction of administered dose conjugated with sulfate” value is recorded as “one-third”. For the same compound, the “fraction metabolized by CYP-450-dependent mixed-function oxidase pathway” value in data set [4] (primarily via CYP2E1) is given as 5-9%. In addition, the “dose excreted unchanged by the kidneys” value in data set [4] (recommended dose) is given as “Less than 5%”.
